From patent US11865146B2 (priority 2015, dated 2024) come the findings set out here.

The test system of this assay is C. difficile strain 630. The conditions noted are these: BDM without glucose.

Experimental: All strains for this study were maintained inside an anaerobic growth chamber with a gas mixture of 75% N2/20% CO2/5% H2 (Coy Lab Products, Grass Lake, MI). Liquid and solid growth media was allowed to reduce in the anaerobic chamber for a minimum of 24 hours prior to use. For transfer out of the chamber, liquid stocks were sealed in sterile, gas-tight crimp cap glass vials. C. difficile strain 630 was maintained at 37° C. on Clostridium difficile Moxalactam Norfloxacin (CDMN) blood agar plates (Aspinall et al. 1992 J Clin Pathol. 45:812-814), in Reinforced Clostridial Medium (RCM) broth (Difco DF1808173), or in Basal Defined Medium (BDM) (Karasawa et al. 1995 Microbiology. 141:371-375) broth. C. difficile amino acid (AA) utilization was assessed using modified BDM containing ½ or ¼ of the standard AA content. Proline utilization was assessed in modified BDM lacking glucose and proline. Bacterial growth rates were assessed using a BioTek Eon microplate spectrophotometer (BioTek, Winooski, VT).

Turning to `O=C(O)[C@@H]1CCCN1` [proline], the “C. difficile growth in the absence of proline” value is “unable to grow”.
